Laboratory results published in paper PMC12718081 (ACS Infectious Diseases, 2025).

What was measured:
Type in all cases: cell-based, Schistosoma mansoni
S. mansoni schistosomula = test: Roboworm high-content screening assay on schistosomula (motility and phenotype scores); conditions: 72 h
Protocol: All PZQ derivatives were synthesized in the racemic form and evaluated as such. The compounds were initially screened at 10 μM against S. mansoni schistosomula using the Roboworm high-content screening assay , and were declared hits or nonhits based on their effect on parasites’ motility and phenotype scores after 72 h of incubation. As none of the compounds were considered hits at this concentration, we performed a titration from 6.25 to 50 μM (Figure S27).
DMSO was included as a negative control. Compounds were considered hits if both their motility and phenotype scores were lower than −0.35 and −0.15, respectively (region delimited by the dashed lines). In red, PZQ analogues selected for further analysis.
For the collection of schistosomula, B. glabrata snails infected with S. mansoni were shed for 2 h under light at 26 °C. Cercariae were collected, mechanically transformed into schistosomula as previously described.
DMSO (0.625%, v/v) was included as a negative control. Z′ values for the assay were calculated to be 0.542 for phenotype and 0.361 for motility. […]
(§1) Auranofin (AUR) was included at 10 µM as positive control. DMSO was included as a negative control. Compounds were considered hits if both their motility and phenotype scores were lower than -0.35 and -0.15, respectively (region delimited by the […]

[1] = system: juvenile schistosomes (21 days p.i.); test: XTT juvenile viability assay; conditions: 48 h; for parasite metabolic activity compared to the DMSO control group (XTT): 100 μM
Sm.TRPMPZQ Y1392A mutant = test: Ca2+ reporter activation assay, Sm.TRPMPZQ point mutant Y1392A; conditions: 100 μM
Protocol: This trend likely indicates a similar binding mode.
The colored cells represent the range of EC50 values for each compound based on their ability to activate the channel.
(§2) The Ca^2+ reporter assay was performed using a Fluorescence Imaging Plate Reader (FLIPR) system, as described in the Supporting Information.
(§3) Adult worm ex-vivo high-content assay
(§4) “Area” and “False Negative Rate” from the MeasureObjectSizeShape and MeasureObjectOverlap modules, respectively. These measurements were then modeled by a multilevel generalized linear statistical model. The effects of the experimental treatments on […]
(§5) The half-maximal inhibitory
(§6) Windows (GraphPad Software, Boston, MA, USA; www.graphpad.com). […]
(§7) with DMSO as a negative control. […]
(§8) reader. […] The fluorescence
(§9) Untransfected HEK293 cells were used as a control.
(§10) 10% fetal bovine serum (FBS). […]
(§11) atmosphere containing 5% CO₂. Following incubation, the growth medium was removed and […]
buffer containing 2.5 mM probenecid in HBSS (with Ca²⁺ and Mg²⁺), 20 mM HEPES, 0.3% BSA (Sigma, A7030), and 0.03% L-ascorbic acid (Sigma). Cells were incubated for 40 minutes at 37 °C and subsequently for 20 minutes at room temperature. […]
(§12) instrument (Molecular Devices). Baseline fluorescence was recorded for 20 seconds, followed by the addition of 5 µL of each drug solution, after which fluorescence was measured continuously for 250 seconds. […]

Sm.TRPMPZQ = test: Ca2+ reporter assay in antagonist mode (block of PZQ activation of Sm.TRPMPZQ); conditions: preincubation 1 nM-100 μM for 10 min, data not shown
Protocol: as §2, §3, §4, §5, §6, §7, §8, §9, §10, §11
buffer containing 2.5 mM probenecid in HBSS (with Ca²⁺ and Mg²⁺), 20 mM HEPES, 0.3% BSA (Sigma, A7030), and 0.03% L-ascorbic acid (Sigma). Cells were incubated for 40 minutes at 37 °C and subsequently for 20 minutes at room temperature. A total of seven PZQ derivatives were tested, using racemic PZQ included as a positive control on each assay plate. Drug dilutions were prepared in assay buffer without dye and probenecid and dispensed into separate flat-bottom 384-well plates. Calcium flux measurements were performed at room temperature using a […]
as §12
as §1, with “schistosomula after 72h of incubation using the Roboworm high-content screening assay. Auranofin” for “Auranofin”
(1 picture or pasted object on this page, not shown here)

| Structure (SMILES) | effect on parasites motility (S. mansoni schistosomula; 50 μM) | hit classification (motility and phenotype scores) (S. mansoni schistosomula; 50 μM, hit if motility < -0.35 and phenotype < -0.15) | parasite metabolic activity compared to the DMSO control group (XTT) [1] | hit classification (motility and phenotype scores) (S. mansoni schistosomula; 12.5 μM) | hit classification (motility and phenotype scores) (S. mansoni schistosomula; 25 μM) | viability at 100 µM ([1]; Schistosoma mansoni, mean ± SD, read-out: juvenile worm viability (XTT, % residual viability)) [%] | activity at Sm.TRPMPZQ carrying the Y1392A mutation (Sm.TRPMPZQ Y1392A mutant) | block of PZQ activation of Sm.TRPMPZQ (antagonist mode) (Sm.TRPMPZQ) |
| --- | --- | --- | --- | --- | --- | --- | --- | --- |
| CCCc1cn(-c2ccc3c(c2)C2CN(C(=O)C4CCCCC4)CC(=O)N2CC3)nn1 (stereo not drawn) [Compound 5e] | significant effect | did not change their phenotype score enough to be considered a hit | significantly decreased | – | – | – | – | – |
| [N-]=[N+]=Nc1ccc2c(c1)C1CN(C(=O)C3CCCCC3)CC(=O)N1CC2 (stereo not drawn) [Compound 4] | – | – | significantly decreased | borderline | declared a hit | 44.6 | retained residual activity | – |
| O=C(C1CCCCC1)N1CC(=O)N2CCc3ccc(-n4cc(C5=CCCCC5)nn4)cc3C2C1 (stereo not drawn) [Compound 5b] | – | – | – | – | – | – | – | failed to impact subsequent responses to PZQ |
